PMC11042500 (Journal of medicinal chemistry, 2020)
Read-outs that look alike come from different tables or passages of the source.

How the values were obtained:
[1] = test system: L6 rat myoblast cells; test: Oxygen consumption rate; details: for uncoupling activity (in words): OCR in L6 rat myoblast cells
[2] = Core body temperature after acute oral dose; format: in vivo; details: acute oral dose 5, 20, 50 mg/kg, up to 4 h, C57BL/6 male mice; listed as SHS4121705
[3] = test system: STAM mouse model of NASH; test: STAM; format: in vivo, mice; details: SHS4121705 25 mg kg−1 d−1 in food
[4] = use in humans; cited from earlier work
[5] = test system: STAM mouse model of NASH; details: STZ-induced mouse model of NASH; cited from earlier work

Question: Which “uncoupling activity (in words)” value [1] does the source give for `Oc1nccnc1Nc1ccccc1F` [16a, 3-((2-Fluorophenyl)amino)pyrazin-2-ol] here?
Answer: inactive

Question: What does the source list for `Oc1nc2nonc2nc1Nc1ccc(OC(F)(F)F)cc1` [12i, 6-((4-(Trifluoromethoxy)phenyl)amino)-[1,2,5]oxadiazolo[3,4-b]pyrazin-5-ol]?
Answer: effect on core body temperature [2]: no effect; ballooning score ([3]; 21 days): 0.25 ± 0.16; inflammation score ([3]; 21 days): 2.38 ± 0.18; steatosis score ([3]; 21 days): 0 ± 0; NAS score (NAFLD activity score) ([3]; liver, day 21): 2.63 ± 0.18

Question: For `CN(c1ccccc1F)c1nc2nonc2nc1O` [12ae, 6-((2-Fluorophenyl)(methyl)amino)-[1,2,5]oxadiazolo[3,4-b]pyrazin-5-ol], which “uncoupling activity (in words)” value [1] is on record?
Answer: completely devoid of uncoupling activity

Question: With `Oc1nc2nonc2nc1Nc1ccccc1F` [12a, 6-((2-Fluorophenyl)amino)-[1,2,5]oxadiazolo[3,4-b]pyrazin-5-ol] as the compound, how does the loss of potency ([1]; OCR EC50 of 12a compared with parent diamine uncoupler) read?
Answer: 40 ×

Question: With `Oc1nccnc1Nc1ccc(-c2ccc(F)cc2)cc1` [16h, 3-((4′-Fluoro-[1,1′-biphenyl]-4-yl)amino)pyrazin-2-ol] as the compound, how does the “uncoupling activity (in words)” value [1] read?
Answer: inactive

Question: Which “fold less potent than 12i” value ([1]; OCR EC50 relative to 12i) does the source give for `Oc1nc2nonc2nc1Nc1ccc(C(F)(F)F)c(F)c1` [12v, 6-((3-Fluoro-4-(trifluoromethyl)phenyl)amino)-[1,2,5]oxadiazolo[3,4-b]pyrazin-5-ol] here?
Answer: > 2 fold

Question: For `COc1nc2nonc2nc1Nc1ccc(OC(F)(F)F)cc1` [compound 13, 6-Methoxy-N-(4-(trifluoromethoxy)phenyl)-[1,2,5]oxadiazolo[3,4-b]pyrazin-5-amine], which “uncoupling activity (in words)” value [1] is on record?
Answer: significantly abrogated

Question: For `O=[N+]([O-])c1ccc(O)c([N+](=O)[O-])c1` [DNP, 2,4-dinitrophenol], which increase in metabolism [4] is on record?
Answer: > 50%

Question: With `CCCCCCCCCCc1ccc(Nc2nccnc2O)cc1` [16b, 3-((4-Decylphenyl)amino)pyrazin-2-ol] as the compound, how does the “uncoupling activity (in words)” value [1] read?
Answer: inactive

Question: Which fibrosis score [5] does the source give for `Fc1cccc(Nc2nc3nonc3nc2Nc2ccccc2F)c1` [compound 9] here?
Answer: reduced

Question: And the inflammation score [5]?
Answer: reduced

Question: And the liver triglyceride levels [5]?
Answer: lowered

Question: With `COc1cccc(-c2ccc(Nc3nccnc3O)cc2)c1` [16g, 3-((3′-Methoxy-[1,1′-biphenyl]-4-yl)amino)pyrazin-2-ol] as the compound, how does the “uncoupling activity (in words)” value [1] read?
Answer: inactive
